Test results as given in patent US20050197350A1, “Novel quinoline, tetrahydroquinazoline, and pyrimidine derivatives and methods of treatment related to the use thereof” (TAISHO PHARMACEUTICAL CO., LTD., priority 2003, published 2005).

tested on: MCH receptors; assay: MCH receptor activity class (method not given); settings: class 1-3 by percent of control at 10^-7 M or IC50

SMILES	class
Cc1cc(C(=O)NC[C@H]2CC[C@@H](Nc3nccc(N(C)C)n3)CC2)ccc1F [compound 426]	3 (Class 3 The value of percent of control at 10^−7 M was more than 60% or the value of IC50 was more than 200 nM.)
CN(C)c1ccnc(N[C@H]2CC[C@@H](CNC(=O)c3ccccc3SC(F)F)CC2)n1 [compound 427]	3 (Class 3 The value of percent of control at 10^−7 M was more than 60% or the value of IC50 was more than 200 nM.)
CN(C)c1ccnc(N[C@H]2CC[C@@H](CNC(=O)c3cc(Cl)sc3Cl)CC2)n1 [compound 428]	3 (Class 3 The value of percent of control at 10^−7 M was more than 60% or the value of IC50 was more than 200 nM.)
CCCSc1ncccc1C(=O)NC[C@H]1CC[C@@H](Nc2nccc(N(C)C)n2)CC1 [compound 429]	2 (Class 2: The value of percent of control at 10^−7 M was from 40% to 60% or the value of IC′50 was from 50 nM to 200 nM.)
CN(C)c1ccnc(N[C@H]2CC[C@@H](CNC(=O)c3cc(C(C)(C)C)nn3Cc3ccccc3)CC2)n1 [compound 430]	3 (Class 3 The value of percent of control at 10^−7 M was more than 60% or the value of IC50 was more than 200 nM.)
CN(C)c1ccnc(N[C@H]2CC[C@@H](CNC(=O)c3cc(C(C)(C)C)nn3C)CC2)n1 [compound 431]	3 (Class 3 The value of percent of control at 10^−7 M was more than 60% or the value of IC50 was more than 200 nM.)
C/C(=C\c1ccccc1)C(=O)NC[C@H]1CC[C@@H](Nc2nccc(N(C)C)n2)CC1 [compound 432]	3 (Class 3 The value of percent of control at 10^−7 M was more than 60% or the value of IC50 was more than 200 nM.)
CN(C)c1ccnc(N[C@H]2CC[C@@H](CNC(=O)c3cncc(Br)c3)CC2)n1 [compound 433]	3 (Class 3 The value of percent of control at 10^−7 M was more than 60% or the value of IC50 was more than 200 nM.)
CN(C)c1ccnc(N[C@H]2CC[C@@H](CNC(=O)Cc3cccc4ccccc34)CC2)n1 [compound 434]	1 (Class 1: The value of percent of control at 10^−7 M was less than 40% or the value of IC50 was less than 50 nM.)
Cc1cc(C(=O)NC[C@H]2CC[C@@H](Nc3nccc(N(C)C)n3)CC2)nn1C(C)(C)C [compound 435, 1-tert-butyl-N-[(cis-4-{[4-(dimethylamino)pyriniidin-2-yl]amino}cyclohexyl)methyl]-5-methyl-1H-pyrazole-3-carboxamide]	3 (Class 3 The value of percent of control at 10^−7 M was more than 60% or the value of IC50 was more than 200 nM.)
CN(C)c1ccnc(N[C@H]2CC[C@@H](CNC(=O)c3csc4ccccc34)CC2)n1 [compound 436]	3 (Class 3 The value of percent of control at 10^−7 M was more than 60% or the value of IC50 was more than 200 nM.)
CN(C)c1ccnc(N[C@H]2CC[C@@H](CNC(=O)c3ccc(-c4ccccc4)cc3)CC2)n1 [compound 437]	3 (Class 3 The value of percent of control at 10^−7 M was more than 60% or the value of IC50 was more than 200 nM.)
CN(C)c1ccnc(N[C@H]2CC[C@@H](CNC(=O)c3ccccc3Br)CC2)n1 [compound 438]	3 (Class 3 The value of percent of control at 10^−7 M was more than 60% or the value of IC50 was more than 200 nM.)
CN(C)c1ccnc(N[C@H]2CC[C@@H](CNC(=O)c3c(Cl)cccc3Cl)CC2)n1 [compound 439]	3 (Class 3 The value of percent of control at 10^−7 M was more than 60% or the value of IC50 was more than 200 nM.)
CN(C)c1ccnc(N[C@H]2CC[C@@H](CNC(=O)c3ccccc3I)CC2)n1 [compound 440]	3 (Class 3 The value of percent of control at 10^−7 M was more than 60% or the value of IC50 was more than 200 nM.)
Cc1ccccc1C(=O)NC[C@H]1CC[C@@H](Nc2nccc(N(C)C)n2)CC1 [compound 441]	3 (Class 3 The value of percent of control at 10^−7 M was more than 60% or the value of IC50 was more than 200 nM.)
CN(C)c1ccnc(N[C@H]2CC[C@@H](CNC(=O)c3cccc(Cl)c3Cl)CC2)n1 [compound 442]	3 (Class 3 The value of percent of control at 10^−7 M was more than 60% or the value of IC50 was more than 200 nM.)
CN(C)c1ccnc(N[C@H]2CC[C@@H](CNC(=O)c3cc(F)ccc3Cl)CC2)n1 [compound 443]	3 (Class 3 The value of percent of control at 10^−7 M was more than 60% or the value of IC50 was more than 200 nM.)
CN(C)c1ccnc(N[C@H]2CC[C@@H](CNC(=O)c3cccc4c3-c3ccccc3C4=O)CC2)n1 [compound 444, N-[(cis-4-{[4-(dimethylamino)pyrimidin-2-yl]amino}cyclohexyl)methyl]-9-oxo-9H-fluorene-4-carboxamide]	2 (Class 2: The value of percent of control at 10^−7 M was from 40% to 60% or the value of IC′50 was from 50 nM to 200 nM.)
CN(C)c1ccnc(N[C@H]2CC[C@@H](CNC(=O)c3c(F)ccc(F)c3F)CC2)n1 [compound 445]	3 (Class 3 The value of percent of control at 10^−7 M was more than 60% or the value of IC50 was more than 200 nM.)
CN(C)c1ccnc(N[C@H]2CC[C@@H](CNC(=O)c3cccc(F)c3F)CC2)n1 [compound 446]	3 (Class 3 The value of percent of control at 10^−7 M was more than 60% or the value of IC50 was more than 200 nM.)
CN(C)c1ccnc(N[C@H]2CC[C@@H](CNC(=O)c3c(F)cccc3F)CC2)n1 [compound 447]	3 (Class 3 The value of percent of control at 10^−7 M was more than 60% or the value of IC50 was more than 200 nM.)
CN(C)c1ccnc(N[C@H]2CC[C@@H](CNC(=O)c3c(F)cccc3C(F)(F)F)CC2)n1 [compound 448]	3 (Class 3 The value of percent of control at 10^−7 M was more than 60% or the value of IC50 was more than 200 nM.)
Cc1cc(C)c(C(=O)NC[C@H]2CC[C@@H](Nc3nccc(N(C)C)n3)CC2)c(C)c1 [compound 449, N-[(cis-4-{[4-(dimethylamino)pyrimidin-2-yl]amino}cyclohexyl)methyl]-2,4,6-trimethylbenzamide]	2 (Class 2: The value of percent of control at 10^−7 M was from 40% to 60% or the value of IC′50 was from 50 nM to 200 nM.)
CN(C)c1ccnc(N[C@H]2CC[C@@H](CNC(=O)c3c(F)cccc3Cl)CC2)n1 [compound 450]	3 (Class 3 The value of percent of control at 10^−7 M was more than 60% or the value of IC50 was more than 200 nM.)
CN(C)c1ccnc(N[C@H]2CC[C@@H](CNC(=O)c3c(Cl)cc(Cl)cc3Cl)CC2)n1 [compound 451]	2 (Class 2: The value of percent of control at 10^−7 M was from 40% to 60% or the value of IC′50 was from 50 nM to 200 nM.)
CN(C)c1ccnc(N[C@H]2CC[C@@H](CNC(=O)/C=C/c3ccccc3Cl)CC2)n1 [compound 452]	2 (Class 2: The value of percent of control at 10^−7 M was from 40% to 60% or the value of IC′50 was from 50 nM to 200 nM.)
Cc1ccc(Cl)c(C(=O)NC[C@H]2CC[C@@H](Nc3nccc(N(C)C)n3)CC2)c1F [compound 453]	3 (Class 3 The value of percent of control at 10^−7 M was more than 60% or the value of IC50 was more than 200 nM.)
CN(C)c1ccnc(N[C@H]2CC[C@@H](CNC(=O)c3c(F)ccc(F)c3Cl)CC2)n1 [compound 454]	3 (Class 3 The value of percent of control at 10^−7 M was more than 60% or the value of IC50 was more than 200 nM.)
Cc1cccc(C(=O)NC[C@H]2CC[C@@H](Nc3nccc(N(C)C)n3)CC2)c1C [compound 455]	3 (Class 3 The value of percent of control at 10^−7 M was more than 60% or the value of IC50 was more than 200 nM.)
